Row | SMILES | melting point [°C]
1 | Cc1ccc(S(=O)(=O)NC(=O)OCCc2ccc(-n3c(CCCN4CCCC4=O)nc4cc(C(F)(F)F)c(Cl)cc43)cc2)cc1 | 85 to 90
2 | CCc1nc2cc(C(N)=O)c(Cl)cc2n1-c1ccc(CCOC(=O)NS(=O)(=O)c2ccc(C)cc2)cc1 | 170 to 175
3 | Cc1ccc(S(=O)(=O)NC(=O)OCCc2ccc(-n3c(CCC(=O)N4CCCCC4)nc4cc(C(F)(F)F)c(Cl)cc43)cc2)cc1 | 210
4 | Cc1ccc(S(=O)(=O)NC(=O)OCCc2ccc(-n3c(CCC(=O)c4ccccn4)nc4cc(C(F)(F)F)c(Cl)cc43)cc2)cc1 | 233.6
5 | Cc1ccc(S(=O)(=O)NC(=O)OCCc2ccc(-n3c(CCC(=O)N4CCCC4)nc4cc(C(F)(F)F)c(Cl)cc43)cc2)cc1 [Example 363, 2-{4-[6-CHLORO-2-[3-OXO-3-(1-PYRROLIDINYL)PROPYL]-5-(TRIFLUOROMETHYL)-1H-BENZIMIDAZOL-1-YL]PHENYL}ETHYL (4-METHYLPHENYL)SULFONYLCARBAMATE] | 98 to 105
6 | Cc1ccc(S(=O)(=O)NC(=O)OCCc2ccc(-n3c(CCC(=O)c4cccnc4)nc4cc(C(F)(F)F)c(Cl)cc43)cc2)cc1 | 89 to 95
7 | CCc1nc2cc(CO)c(Cl)cc2n1-c1ccc(CCOC(=O)NS(=O)(=O)c2ccc(C)cc2)cc1 [Example 337, 2-{4-[6-CHLORO-2-ETHYL-5-(HYDROXYMETHYL)-1H-BENZIMIDAZOL-1-YL]PHENYL}ETHYL (4-METHYLPHENYL)SULFONYLCARBAMATE] | 172.7
8 | CCc1nc2cc(C(=O)NC)c(Cl)cc2n1-c1ccc(CCOC(=O)NS(=O)(=O)c2ccc(C)cc2)cc1 [Example 334, 2-(4-{6CHLORO-2-ETHYL-5-[(METHYLAMINO)CARBONYL]-1H-BENZIMIDAZOL-1-YL}PHENYL)ETHYL (4-METHYLPHENYL)SULFONYLCARBAMATE] | 201 to 204
9 | CCc1nc2c(C)cc(C)nc2n1-c1ccc(CC(C)OC(=O)NS(=O)(=O)c2ccc(C)cc2)cc1 (stereo not shown) [Example 7, 2-[4-(2-ETHYL-5,7-DIMETHYL-3H-IMIDAZO[4,5-b]PYRIDIN-3-YL)PHENYL]-1-METHYLETHYL (4-METHYLPHENYL)SULFONYLCARBAMATE] | 108
10 | CCc1nc2cc(COC)c(Cl)cc2n1-c1ccc(CCOC(=O)NS(=O)(=O)c2ccc(C)cc2)cc1 | 174.5

Source: patent US7479564B2, “Aryl or heteroaryl fused imidazole compounds as anti-inflammatory and analgesic agents” (RaQualia Pharma Inc., priority 2000, dated 2009)
